Measured values from article PMC5703966, “Systemic clearance and brain distribution of carbazole-based cyanine compounds as Alzheimer’s disease drug candidates” (Scientific Reports, 2017).
“And” between values parts separate entries of the source, which are not always exact repeats. Equal values may be shown once. Read-outs that look alike come from different tables or passages of the source.

Legend:
[1] = biological target: P-gp (Homo sapiens, UniProt P08183); assay: Efflux transporter identification in Caco-2 cell with P-gp specific inhibitors; conditions: efflux ratio reduced by PSC833 and verapamil, concentration-dependent
[2] = Liver microsomes binding by RED device; assay type: in vitro ADME
Procedure: Nonspecific binding in plasma (f u, plasma), microsomes (f u, mic) and hepatocyte (f u, hep) were determined using the method seen in supplemental information (Supplemental Methods). […]
Plasma, liver microsomes and hepatocyte binding by RED device […]
The stability of the compounds in plasma, liver microsomes and hepatocyte were studied to ensure […]
the reliability of the binding data. Hepatocyte was deactivated by leaving them on a bench for 2 days […]
and going through a freeze thaw cycle thereafter. […]
denatured. Testosterone was used as a control for CYP3A to ensure no turnover, so that the enzymes […]
were inactivated. All validation compounds were incubated at 37 °C over 4 h, and in triplicate. […]
For liver mi crosomes without cofactors and […]
mg/mL protein concentration, same as the assay condition) or deactivated hepatocytes (0.5 million […]
cells/mL, same as the assay condition) were added to the donor wells. 10 mM DMSO solutions of SLM […]
and SLOH were diluted to 50 µM (10% DMSO). 490 µL aliquots microsomes (0.51 mg/mL) and […]
hepatocytes (0.51 million cells/mL) were dispensed into a 1.5 mL tube, and then pre-warmed at 37 °C […]
in a shaking water bath. The assay was started by addition of 10 µL aliquots of compound solutions to […]
the corresponding biologica l matrices (final DMSO incubation concentration 0.2%, microsomes […]
concentration 0.50 mg/mL, hepatocytes concentration 0.5 million cells/mL). At 0, 15, 30, 60, 120, 180 […]
MS/MS. Natural logarithm of peak area ratios (compound peak area normalized by IS peak area) were plotted against time and half-life calculated. […]
placed into the sample chamber (indicated by the red ring) with 400 µL of PBS into the adjacent chamber.
The plate was sealed with a self-adhesive lid and incubated at 37 °C on an orbital shaker (1.5 g approx.) for 4 h. Aliquots (100 µL) were removed from each side of the insert, and analyzed after protein precipitation using 4 folds acetonitrile (ACN) containing berberine chloride as internal standard (IS) by LC-MS/MS (Analytical me thod seen below). The experimental procedure outlined in the Thermo Scientific RED device systems brochure was adopted in the present study . […]
For control experiments, NADPH, UDPGA and/or liver microsomes were omitted from these incubations. For the purposes of metabolite identification studies, the concentration of SLOH and […]

[3] = Blood cell partitioning (blood to plasma ratio); assay type: in vitro ADME; conditions: fresh whole blood, 37 °C
Procedure: The blood to plasma ratio was determined using the method shown in supplemental information (Supplemental Methods). […] The blood cell partitioning was calculated as follows. […] Plasma, liver microsomes and hepatocyte binding by RED device The stability of the compounds in plasma, liver microsomes and hepatocyte were studied to ensure the reliability of the binding data. Hepatocyte was deactivated by leaving them on a bench for 2 days and going through a freeze thaw cycle thereafter.

[4] = system: C57BL/6 mice; assay: Systemic clearance and pharmacokinetics after i.v. dose in C57BL/6 mice aging 2 months; assay type: in vivo, mouse; conditions: for Cl u, renal/GFR Ratio: GFR in mice 0.6 L/h per Kg; for dose dependence of kinetics: i.v. 0.2 mg/kg to 4 mg/kg in mice; for biliary clearance share of plasma clearance / remaining / hepatic clearance share of plasma clearance (Clhep/Clp) / renal clearance share of plasma clearance: mice; for Liver first pass elimination: mouse, in vivo; for Cl u, renal: total Cl renal normalised with unbound free fraction in blood
Procedure: (§1) Male C57BL/6 and Bile duct-cannulated (BDC) mice (2 months, weighting: 25–30 g) obtained from Charles River, Inc. (Raleigh, NC) were used to study systemic clearance mechanism, in line with in vitro commercial samples from adolescent animals. Mice were fasted overnight and throughout the duration of the study ([…]), whereas access to water was provided ad libitum. SLOH and SLM were administered i.v. in PBS containing 5% DMSO via the tail vein (n = 5) at different dosages in a dosing volume of 5 mL/kg. Serial blood samples were collected before dosing and at 0.083, 0.167, 0.25, 0.5, 1, 2, 4, 8, 12 and 24 hours after dosing. Urine samples (0–12 and 12–24 hours; pooled 0–24 hours) were also collected after i.v. administration (1 mg/kg). Bile samples were collected at intervals of 0–4, 4–8 and 8–24 hours (pooled 0–24 hours) after dosing (1 mg/kg) to BDC mice.
(§2) Parameters in animals were determined using non-compartmental analysis. […] Systemic Cl p was calculated as the i.v. dose divided by AUC0−∞ ^iv. The terminal rate constant (K el) was calculated by a linear regression of the log-linear concentration-time curve, and the terminal elimination t 1/2 was calculated as 0.693 divided by K el. Mean residence time from t = 0 to infinity (MRT 0−∞) was calculated as AUMC 0−∞ divided by AUC 0−∞. Apparent steady-state distribution volume (Vd ss) was determined as Cl p multiplied by MRT 0−∞. […] The Cl bile was derived as the amount of (in milligrams) of SLM or SLOH in the bile over the 24-hour interval postdose/AUC0-24h. The influx clearance into brain (K in) was calculated by using the amount of drug in the brain (homogenate) at time t (A, brain (t)) (corrected for the amount of drug remaining in the cerebral vasculature) divided by plasma exposure up to this time point (AUC, plasma (0 − t)). The C u,brain was calculated by A brain (homogenate, ng/g brain) divided by V u,brain (mL/g brain). The unbound ISF to plasma ratio (K puu,brain) was calculated by unbound AUC 0−t of ISF (ng/mL × min) divided by unbound AUC 0–t (ng/mL × min) of plasma.

[5] = as above; assay type: in vivo, mouse; conditions: male, iv; for clearance / AUC(0-inf) / half-life / MRT inf / Vd: C57BL/6, mouse, plasma; for clearance: read-out: Cl p (converted); for MRT inf: read-out: MRT 0-∞; for Vd: read-out: Vd ss; for CL renal: mouse, urine and plasma, C57BL/6 mice, urine 0–24 h, read-out: Total Cl renal (converted)
Procedure: as §1, §2

[6] = human liver microsomes 0.5 mg/mL
[7] = mouse liver microsomes 0.5 mg/mL
[8] = 1 mg/kg, C57BL/6 mice 2 months, i.v. 1 mg/kg

P-gp, sequence (P08183 whole entry): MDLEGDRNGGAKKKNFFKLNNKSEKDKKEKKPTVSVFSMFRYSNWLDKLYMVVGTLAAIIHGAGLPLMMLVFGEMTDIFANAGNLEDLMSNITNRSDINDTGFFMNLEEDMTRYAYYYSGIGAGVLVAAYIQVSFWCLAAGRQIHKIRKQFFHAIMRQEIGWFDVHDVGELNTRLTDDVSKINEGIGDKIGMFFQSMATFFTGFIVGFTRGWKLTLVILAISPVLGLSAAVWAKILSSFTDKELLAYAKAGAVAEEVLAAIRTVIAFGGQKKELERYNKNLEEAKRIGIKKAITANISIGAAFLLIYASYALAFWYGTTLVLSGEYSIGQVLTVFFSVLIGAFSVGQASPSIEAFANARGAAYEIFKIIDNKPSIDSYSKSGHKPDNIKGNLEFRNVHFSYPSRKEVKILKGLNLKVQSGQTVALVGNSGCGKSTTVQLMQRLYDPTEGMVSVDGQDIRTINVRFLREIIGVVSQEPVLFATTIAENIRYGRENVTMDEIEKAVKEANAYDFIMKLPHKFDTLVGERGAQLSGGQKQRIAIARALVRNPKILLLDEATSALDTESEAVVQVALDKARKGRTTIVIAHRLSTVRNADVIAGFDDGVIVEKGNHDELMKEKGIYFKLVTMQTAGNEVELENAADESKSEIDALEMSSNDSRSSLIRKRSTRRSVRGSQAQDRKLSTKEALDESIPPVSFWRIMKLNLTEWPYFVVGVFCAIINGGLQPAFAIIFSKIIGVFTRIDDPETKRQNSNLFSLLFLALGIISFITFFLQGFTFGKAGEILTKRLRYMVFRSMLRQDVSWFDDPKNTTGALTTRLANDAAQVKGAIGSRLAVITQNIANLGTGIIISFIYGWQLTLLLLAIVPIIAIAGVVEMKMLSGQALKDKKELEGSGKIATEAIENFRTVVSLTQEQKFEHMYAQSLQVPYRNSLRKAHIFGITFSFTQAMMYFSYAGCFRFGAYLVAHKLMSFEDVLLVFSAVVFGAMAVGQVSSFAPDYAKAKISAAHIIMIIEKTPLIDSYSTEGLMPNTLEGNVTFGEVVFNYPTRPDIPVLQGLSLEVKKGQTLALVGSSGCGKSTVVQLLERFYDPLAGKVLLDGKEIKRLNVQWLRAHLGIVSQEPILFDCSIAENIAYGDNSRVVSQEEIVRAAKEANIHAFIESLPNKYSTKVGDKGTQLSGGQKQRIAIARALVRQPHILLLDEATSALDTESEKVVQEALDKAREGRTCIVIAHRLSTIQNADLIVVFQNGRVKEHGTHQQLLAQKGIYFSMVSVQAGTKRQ

P-gp substrate identification [1] | f u,mic % [2, 6] | f u,mic % [2, 7] | blood plasma ratio at 1 h, 1 μM ([3]; human) | blood plasma ratio at 1 h, 1 μM ([3]; mouse) | Cl u, renal/GFR Ratio [4] | dose dependence of kinetics [4] | biliary clearance share of plasma clearance [4] | remaining / hepatic clearance share of plasma clearance (Clhep/Clp) [4] | renal clearance share of plasma clearance [4] | Liver first pass elimination [4] | clearance ([5]; 0.2 mg/kg, i.v. 0.2 mg/kg) | clearance ([5]; 0.6 mg/kg, i.v. 0.6 mg/kg) | clearance [5, 8] | clearance ([5]; 2 mg/kg, i.v. 2.0 mg/kg) | clearance ([5]; 4 mg/kg, i.v. 4.0 mg/kg) | AUC(0-inf) ([5]; i.v. 0.2 mg/kg) | half-life ([5]; i.v. 0.2 mg/kg) | MRT inf ([5]; i.v. 0.2 mg/kg) | SMILES | Cl u, renal [4] | other results
substrates | 6.60 ± 1.60% | 17.0 ± 2.40^$ % | ~0.76 | ~1.3 | 0.260 ± 0.0400^$$ | linearity kinetics dependent on dose | 34.0% | 64.0% | 1.10% | 16.0 % liver blood flow | 15.5 mL/min/kg | 12.8 mL/min/kg | ~10.2 mL/min/kg | 10.7 mL/min/kg | 11.8 mL/min/kg | 220 ± 61 ng·h/mL | 6.9 ± 3.7 h | 2.7 ± 1.5 h | COCCOCCn1c2ccccc2c2cc(/C=C/c3cc[n+](CCO)c4ccccc34)ccc21 [SLOH, (E)-1-(2-hydroxyethyl)-4-(2-(9-(2-(2-metho-xyethoxy)-ethyl)-9H-carbazol-3-yl)vinyl) quinolin-1-ium chloride] | 0.160 L/h per Kg and 0.160 ± 0.0300^$$ L/h per Kg | Cl p ([4]; C57BL/6 mice 2 months, i.v. 1 mg/kg, 1 mg/kg): 0.610 ± 0.140 L/h per Kg; Vd ([5]; i.v. 0.2 mg/kg): 1 ± 0.33 L/kg; AUC(0-inf) ([5]; i.v. 0.6 mg/kg): 860 ± 310 ng·h/mL; half-life ([5]; i.v. 0.6 mg/kg): 5.5 ± 1.1 h; MRT inf ([5]; i.v. 0.6 mg/kg): 2.3 ± 0.78 h; Vd ([5]; i.v. 0.6 mg/kg): 1.2 ± 0.58 L/kg; half-life ([5]; i.v. 1.0 mg/kg): 5.8 ± 0.16 h; MRT inf ([5]; i.v. 1.0 mg/kg): 1.8 ± 0.1 h; Vd ([5]; i.v. 1.0 mg/kg): 0.83 ± 0.43 L/kg; half-life ([5]; i.v. 2.0 mg/kg): 4.6 ± 0.76 h; MRT inf ([5]; i.v. 2.0 mg/kg): 1.8 ± 0.17 h; Vd ([5]; i.v. 2.0 mg/kg): 1 ± 0.36 L/kg; half-life ([5]; i.v. 4.0 mg/kg): 5.8 ± 1.7 h; MRT inf ([5]; i.v. 4.0 mg/kg): 1.7 ± 0.08 h; Vd ([5]; i.v. 4.0 mg/kg): 1 ± 0.35 L/kg; CL renal ([5]; i.v. 1 mg/kg): 0.167 mL/min/kg
substrates | 7.30 ± 0.150% | 11.0 ± 1.06^$ % | ~0.82 | ~1.4 | 1.90 ± 0.390 | linearity kinetics dependent on dose | 38.0% | 58.0% | 4.50% | 16.0 % liver blood flow | 14.8 mL/min/kg | 15.5 mL/min/kg | ~11.8 mL/min/kg | 12.5 mL/min/kg | 13.8 mL/min/kg | 240 ± 74 ng·h/mL | 6.4 ± 4 h | 3.5 ± 0.95 h | COCCOCCn1c2ccccc2c2cc(/C=C/c3cc[n+](C)c4ccccc34)ccc21.[I-] [SLM, (E)-4-(2-(9-(2-(2-methoxyethoxy)ethyl)-9H-carbazol-3-yl)-vinyl)-1-methyl-quinolin-1-iumiodide] | 1.10 L/h per Kg and 1.10 ± 0.230 L/h per Kg | Vd ([5]; i.v. 0.2 mg/kg): 1.5 ± 0.63 L/kg; AUC(0-inf) ([5]; i.v. 0.6 mg/kg): 580 ± 170 ng·h/mL; half-life ([5]; i.v. 0.6 mg/kg): 6 ± 1.1 h; MRT inf ([5]; i.v. 0.6 mg/kg): 3.7 ± 0.86 h; Vd ([5]; i.v. 0.6 mg/kg): 2.1 ± 0.54 L/kg; half-life ([5]; i.v. 1.0 mg/kg): 9.3 ± 3.3 h; MRT inf ([5]; i.v. 1.0 mg/kg): 3.2 ± 1 h; Vd ([5]; i.v. 1.0 mg/kg): 2.2 ± 0.61 L/kg; half-life ([5]; i.v. 2.0 mg/kg): 7.1 ± 0.55 h; MRT inf ([5]; i.v. 2.0 mg/kg): 2.5 ± 0.18 h; Vd ([5]; i.v. 2.0 mg/kg): 1.7 ± 0.55 L/kg; half-life ([5]; i.v. 4.0 mg/kg): 6.5 ± 2 h; MRT inf ([5]; i.v. 4.0 mg/kg): 3 ± 0.52 h; Vd ([5]; i.v. 4.0 mg/kg): 2.1 ± 0.2 L/kg; CL renal ([5]; i.v. 1 mg/kg): 0.667 mL/min/kg
